Laboratory results taken from patent US12384821B2, “Antimicrobial peptides and compositions, methods, articles and kits relating thereto” (George Mason University, priority 2020, dated 2025).
Like-named read-outs stand apart in the source and are kept apart here. Where no end group is shown, it is not given here.

Legend:
[1] = tested on: carbapenem-resistant K. pneumoniae strain (ATCC BAA-1705); format: cell-based, Klebsiella pneumoniae; conditions: for Antibacterial activity against CRKP (in words): CA-MHB, high salt test conditions; for MIC (μM) / MIC (μg/mL): ATCC BAA-1705
Description: Klebsiella pneumoniae ATCC BAA-1705 was purchased from the American Type Culture Collection (Manassas, VA) and grown in Cation-Adjusted Mueller Hinton Broth. Bacteria were aliquoted and frozen at −80° C. with 20% glycerol and enumerated via serial dilution and plating prior to experimentation.
The minimum inhibitory concentration (MIC) of the peptides was determined according to Clinical & Laboratory Standards Institute (CLSJ) guidelines. Bacteria were grown overnight on Cation-adjusted Mueller Hinton Agar (BD 211438, CAMHA) at 37° C. Assays were performed in Cation-adjusted Mueller Hinton Broth (BD 212322, CAMHB) in polypropylene 96 well plates (Corning 3879). Each experiment was performed with three replicates at least three times.

[2] = tested on: CRKP infected waxworms; assay: Waxworm infection model (CRKP infected G. mellonella); format: in vivo, Galleria mellonella
Description: FIG. 5 is a graph showing waxworm survival curves. Waxworms were injected with 10 μL containing 5×10^5 CFU in their rear left proleg. The waxworms were allowed to recover for 30 minutes at 37° C. They were injected with 10 μL containing the various treatments. They were kept at 37° C. and scored for survival every 24 hours. Each group contained 10 waxworms.
Galleria mellonella larvae were obtained from Vanderhorst Wholesale (Saint Marys, OH, USA). 10 larvae weighing between 250 and 300 mg were randomly assigned to each group. Waxworms were injected with 10 μL containing […] suspended in DPBS in their rear left proleg. The waxworms were then allowed to recover for 30 minutes at 37° C. They were then injected with 10 μL DPBS containing the various treatments into their rear right proleg. They were then kept at 37° C. and scored for survival every 24 hours.
(§1) We tested these antimicrobial peptides in the waxworm, G. mellonella.

[3] = tested on: K. pneumoniae strain ATCC BAA-1705; assay: DiSC3(5) membrane depolarization assay; format: cell-based, Klebsiella pneumoniae; conditions: PBS, 100, 10 and 1 μg/ml, 20 min
Description: FIGS. 2A-2B are graphs showing (A) membrane disruption as measured by ethidium bromide uptake against K. pneumoniae strain ATCC BAA-1705 in PBS at 50 μg/ml. Δ RFU shown is after 20 min incubation, done twice in triplicate. A one-way ANOVA with multiple comparisons was performed to determine statistical significance (* p<0.05; ** p<0.01; *** p<0.001); and (B) membrane depolarization Membrane depolarization was measures using 3,3′-dipropylthiadicarbocyanine iodide (DiSC3(5)) against K. pneumoniae strain ATCC BAA-1705 in PBS at 100, 10 and 1 μg/ml. Δ RFU shown is after 20 min incubation, done twice in triplicate. DRGN-6 refers to SEQ ID NO:6, DRGN-7 refers to SEQ ID NO:6 with N-terminus acetylated, DRGN-8 refers to SEQ ID NO:7, NACATH refers to SEQ ID NO:9.
Membrane depolarization was measured using DiSC3(5) (3,3′-dipropylthiadicarbocyanine iodide) as previously described with some modifications. Stocks of enumerated frozen Klebsiella pneumonia ATCC BAA-1705 were pelleted and washed twice in phosphate buffered saline (PBS) and then resuspended to 4×10^7 CFU/ml in PBS containing 50 μg/ml DiSC3(5). […] The plate was incubated in a fluorescence spectrophotometer (Tecan Infinite 200) and monitored until fluorescence stopped decreasing. […] Readings were taken at 20 minutes after addition of peptide (excitation=635 nm; emission=670 nm). […]

[4] = tested on: G. mellonella; parameters: species or system Galleria mellonella; conditions: in vivo
Source text: as §1

[5] = Circular dichroism spectroscopy, percent alpha-helicity; format: physicochemical; conditions: 100 μg/mL peptide
Description: Circular dichroism (CD) analysis of the peptides was performed using a Jasco J-1500 spectropolarimeter. 100 μg/mL of peptide was used in each experiment. Samples were allowed to equilibrate for 5 min prior to data collection at 25° C. in a 1 mm path length cuvette. Spectra were collected from 190 to 260 nm with at 20 nm/min, a data integration time of 4 seconds and a 1 nm bandwidth. Data shown represents the average of four spectra. The peptides were analyzed in 10 mM sodium phosphate buffer (6.12 mM sodium monohydrogen phosphate heptahydrate; 3.92 mM monosodium phosphate anhydrous; pH 7.4), 50% (v/v) trifluoroethanol (TFE) in phosphate buffer, or 60 mM sodium dodecyl sulfate (SDS) in phosphate buffer. Percent contribution to secondary structure was measured using methods described in Raussens, V. et al. (Analytical Biochemistry, 319(1):114-21 (2003)).
The secondary structures of many CAMPs are disordered in the absence of anionic membranes or micelles, but adopt more defined secondary structures in their presence. To detect and measure any changes that the DRGN peptides may undergo based on environment, we studied their structural properties in 10 mM phosphate buffer as a negative control, 60 mM SDS in 10 mM phosphate buffer and 50% 2,2,2-Trifluoroethanol (TFE) in 10 mM phosphate buffer. Phosphate buffer without SDS or TFE provided an environment for studying the conformational properties of the peptides structure in the absence a micelle or membrane. Sodium dodecyl sulfate is an anionic surfactant that can form micelles in aqueous buffers mimicking bacterial membranes and simulating the effects an anionic membrane can have on the conformations of antimicrobial peptides. Addition of trifluoroethanol to aqueous buffer promotes increased structure, usually helicity, in peptides with suitable sequences.

Compound | MIC (μM) ([1]; CLSI protocol in CA-MHB) [µM] | MIC (μg/mL) ([1]; CLSI protocol in CA-MHB) [µg/mL] | MIC (μM) [1] [µM] | MIC (μg/mL) [1] [µg/mL] | other results
CC[C@H](C)[C@H](NC(=O)[C@H](CCCCN)NC(=O)[C@H](CCC(=O)O)NC(=O)[C@H](CCCCN)NC(=O)[C@H](CO)NC(=O)[C@H](CCCCN)NC(=O)[C@H](CCCNC(=N)N)NC(=O)[C@H](Cc1ccccc1)NC(=O)[C@H](Cc1ccccc1)NC(=O)[C@H](CC(=O)O)NC(=O)CNC(=O)[C@H](CC(C)C)NC(=O)[C@@H](N)CC(C)C)C(=O)NCC(=O)N[C@@H](CCCCN)C(=O)N[C@@H](CCC(=O)O)C(=O)N[C@@H](Cc1ccccc1)C(=O)N[C@@H](CCCCN)C(=O)N[C@@H](CCCNC(=N)N)C(=O)N[C@H](C(=O)N[C@H](C(=O)N[C@@H](CCC(N)=O)C(=O)N[C@@H](CCCNC(=N)N)C(=O)N[C@H](C(=O)N[C@@H](CCCCN)C(=O)N[C@@H](CC(=O)O)C(=O)N[C@@H](Cc1ccccc1)C(=O)N[C@@H](CC(C)C)C(=O)N[C@@H](CCCNC(=N)N)C(=O)N[C@@H](CC(N)=O)C(=O)N[C@@H](CC(C)C)C(=O)N[C@H](C(=O)N1CCC[C@H]1C(=O)N[C@@H](CCCNC(=N)N)C(=O)N[C@H](C(=O)N[C@@H](CCC(=O)O)C(=O)N[C@@H](CO)C(=O)O)[C@@H](C)O)C(C)C)[C@@H](C)CC)C(C)C)[C@@H](C)CC [LL-37, reference compound] | >14 | >64 | – | – | Antibacterial activity against CRKP (in words) [1]: very little antibacterial activity
CN(C)c1cc(NC(=O)CNC(C)(C)C)c(O)c2c1C[C@H]1C[C@H]3[C@H](N(C)C)C(O)=C(C(N)=O)C(=O)[C@@]3(O)C(O)=C1C2=O [tigecycline, reference compound] | – | – | – | – | Survival of CRKP infected caterpillars ([2]; control antibiotic injected): 100%
Ac-FRWRRFFRKAKRFLKRHAVSIAIGTVRLLRRFG-NH2 [DRGN-3] | 7.6 | 32 | – | – | –
Ac-FRWRRFFRKAKRFLKRHGVSIAIGTVRLLRRFG-NH2 [DRGN-5] | 7.7 | 32 | – | – | –
Colistin [reference compound] | 3.46 | 4 | – | – | –
FRWRRFFRKAKRFLKRHGVSIAIGTVRLLRRFG [VK-CATH4.1] | 7.7 | 32 | – | – | –
H-FRWRRFFRKAKRFLKRHAVSIAIGTVRLLRRFG-OH [DRGN-2] | 7.7 | 32 | – | – | –
H-RRWRRFFQKAKRLLRRFG-NH2 [DRGN-7] | – | – | 1.6 | 4 | Membrane depolarization, DiSC3(5) [3]: significant depolarization at all concentrations tested; Toxicity of peptide alone in waxworm [4]: none of the peptides DRGN-6, -7 and -8 alone caused toxicity; Change of MIC compared to DRGN-6 ([1]; increase = decreased effectiveness): no effect on MIC; Percent alpha-helicity, 10 mM phosphate buffer ([5]; 10 mM phosphate buffer): 3.0%; Percent alpha-helicity, SDS ([5]; 60 mM SDS in 10 mM phosphate buffer): 77.0%; Percent alpha-helicity, TFE ([5]; 50% TFE in 10 mM phosphate buffer): 72.6%; Survival benefit in CRKP infected waxworms ([2]; single injection 30 min after infection): no survival benefit was observed
RRWRRFFQKAKRFVKRHGVSIAVGAYRIIG [VK-CATH4.2] | – | 32 | 8.7 | – | –
RRWRRFFQKAKRLLRRFG [DRGN-6] | – | – | 1.6 | 4 | Toxicity of peptide alone in waxworm [4]: none of the peptides DRGN-6, -7 and -8 alone caused toxicity
RRWRRFFRKAKRIIG-NH2 [DRGN-11] | – | – | >31 | >64 | Antibacterial activity against CRKP (in words) [1]: virtually inactive
RRWRRFFRKAKRIIG-OH [DRGN-10] | – | – | >31 | >64 | Antibacterial activity against CRKP (in words) [1]: virtually inactive
RRWRRFFRKAKRLLRRFG [DRGN-8] | – | – | 3.2 | 8 | Toxicity of peptide alone in waxworm [4]: none of the peptides DRGN-6, -7 and -8 alone caused toxicity
RRWRRFFRKAKRLLRRFG-NH2 [DRGN-9] | – | – | 6.4 | 16 | Increase in MIC compared to unmodified counterpart DRGN-8 ([1]; C-terminal amidation, decreased effectiveness): 2 fold
